{
  "source": "patent US20260226036A1",
  "about": "“THIOUREA ANTIO[…] NEURO[…]” (priority 2023, published 2026)",
  "key": {"[1]": {"experiment": "Neuroprotection MTT assay in SHSY5Y cells", "assay_type": "cell-based, human", "conditions": "insult agent alone, HT22 or SHSY5Y cells, not told apart, read-out: cell proliferation (viable cells, MTT); for viability: 24 h", "description": "MTT assay was used for measuring viable cells at absorbance of 490 nm. […] (FIGS. 5C-5D)."}, "[2]": {"test_system": "SW mice", "experiment": "Cocaine-conditioned locomotion, expression test", "assay_type": "in vivo, mouse", "conditions": "Paired mice, cocaine 15 mg/kg 24 h earlier; 10 mg/kg prior to testing", "procedure": "The goal of this pilot study was to determine if the novel small molecule was effective in preventing cocaine-conditioned motor activity of SW mice. […] Cocaine results in enhanced locomotor activity in mice. Mice that were previously injected with 15 mg/kg cocaine, either in their home cages (Unpaired) or in the novel test environment (Paired), were tested 24 h later."}, "[3]": {"test_system": "mouse model of CPP", "experiment": "Mouse model of CPP", "assay_type": "in vivo"}, "[4]": {"test_system": "catalase (CAT)", "experiment": "Catalase ELISA in SH-SY5Y cells", "assay_type": "cell-based, human", "conditions": "cocaine 1.5 mM alone; 24 hours", "procedure": "Cell lysates were collected and quantified with Pierce™ BCA Protein Assay. Level of intracellular SOD, catalase, glutathione peroxidase and total antioxidant concentration were assessed using ELISA kits."}, "[5]": {"test_system": "methionine synthase (MS)", "experiment": "Intracellular methionine synthase ELISA of SH-SY5Y cell lysate", "assay_type": "cell-based, human", "conditions": "cocaine 1.5 mM alone; 24 hours; FIG. 6B", "procedure": "Cell lysates were collected and quantified with Pierce™ BCA Protein Assay. Level of intracellular methionine synthase (MS) were assessed using ELISA of the cell lysate."}, "[6]": {"test_system": "IL-1β cytokine", "experiment": "IL-1β cytokine ELISA of SHSY-5Y supernatants", "assay_type": "cell-based, human", "conditions": "cocaine 1.5 mM or METH 3.5 mM alone; 24 h", "procedure": "Supernatants were collected and the IL-1β cytokine concentration was assessed using ELISA kit and following manufacturer instruction (RayBiotech). […] N=3, p<0.05; p<0.01, One-way ANOVA, GraphPad Prism."}},
  "data": [
    {"smiles": "CC(C)(C)OO", "note": "[TBHP, t-butyl hydrogen peroxide]", "values": [
      {"measurement": "viability at 24 h", "setting": "[1]", "value": "~50", "unit": "%"}
    ]},
    {"smiles": "CNC(=S)NC", "note": "[DMTU, dimethyl thiourea]", "values": [
      {"measurement": "expression of increased (cocaine-conditioned) locomotor activity", "setting": "[2]", "value": "effective"},
      {"measurement": "bioactivity in the mouse model of CPP", "setting": "[3]; 5 mg/kg", "value": "potent bioactivity"},
      {"measurement": "bioactivity in the mouse model of CPP", "setting": "[3]; 10 mg/kg", "value": "potent bioactivity"}
    ]},
    {"smiles": "COC(=O)[C@H]1[C@@H](OC(=O)c2ccccc2)C[C@@H]2CC[C@H]1N2C", "note": "[cocaine]", "values": [
      {"measurement": "viability", "setting": "[1]", "value": "~50", "unit": "%"},
      {"measurement": "CAT activity", "setting": "[4]", "value": "no significant effect"},
      {"measurement": "effect on MS", "setting": "[5]", "value": "no significant effect"}
    ]},
    {"smiles": "CN[C@@H](C)Cc1ccccc1", "note": "[METH, methamphetamine]", "values": [
      {"measurement": "IL-1β", "setting": "[6]", "value": "trend in increase"},
      {"measurement": "viability", "setting": "[1]", "value": "~50", "unit": "%"}
    ]}
  ]
}
